Test results published in patent US20110039762A1, “TARGETED ANTIMICROBIAL MOIETIES” (C3 JIAN, INC., priority 2009, published 2011).
“Also recorded” adds a separate entry of the source.

Experiments:
[1] = test system: M. luteus; assay: Kill or inhibit growth/proliferation; morphology, biofilm and growth disruption (Tables 5, 6); type: cell-based, Micrococcus luteus; set-up: key: A: Peptide aggregates; B: Less hyphal formation; Clumps; Diffuse clumps and small polyps; F: Diffuse growth; H: Thin; I: Growth inhibition; Microcolony formation; Rippled; Small polyps; Thick; W: Halo formation on top, microlonies on bottom; further: test concentration or dose not given here
[2] = test system: C. jeikeium; assay: as above; type: cell-based, Corynebacterium jeikeium; set-up: key: A: Peptide aggregates; B: Less hyphal formation; Clumps; Diffuse clumps and small polyps; F: Diffuse growth; H: Thin; I: Growth inhibition; Microcolony formation; Rippled; Small polyps; Thick; W: Halo formation on top, microlonies on bottom; further: test concentration or dose not given here
[3] = test system: MRSA; assay: as above; type: cell-based, Methicillin-resistant Staphylococcus aureus; set-up: key: A: Peptide aggregates; B: Less hyphal formation; Clumps; Diffuse clumps and small polyps; F: Diffuse growth; H: Thin; I: Growth inhibition; Microcolony formation; Rippled; Small polyps; Thick; W: Halo formation on top, microlonies on bottom; further: test concentration or dose not given here
[4] = test system: S. epidermidis; assay: as above; type: cell-based, Staphylococcus epidermidis; set-up: key: A: Peptide aggregates; B: Less hyphal formation; Clumps; Diffuse clumps and small polyps; F: Diffuse growth; H: Thin; I: Growth inhibition; Microcolony formation; Rippled; Small polyps; Thick; W: Halo formation on top, microlonies on bottom; further: test concentration or dose not given here
[5] = test system: microorganisms; assay: Peptides having multiple activities (targeting/binding, antimicrobial, growth or phenotype altering)
Excerpt: In certain embodiments, peptides described herein can have multiple activities. Thus for example, a peptide can have both binding/targeting activity and antimicrobial activity. Such peptides can be used, e.g., in a chimeric construct, for any or all of these properties. Thus, for example, a peptide designated “B” in Table 8 can be used as a targeting peptide. If it is also designated G or M it can also be used for antimicrobial activity.

[6] = test system: microorganisms (e.g., bacteria, yeasts, fungi); assay: Targeting peptide binding to target microorganisms (Table 3); conditions: preferably 1x PBS; for Target(s): microorganism(s) the targeting peptide binds; for Target(s) (microorganisms bound by the targeting peptide): peptide binding in aqueous buffers varied by peptide solubility
[7] = test system: S. pneumoniae; assay: Kill or inhibit growth/proliferation; morphology, biofilm and growth disruption (Tables 5, 6); type: cell-based, Streptococcus pneumoniae; set-up: key: A: Peptide aggregates; B: Less hyphal formation; Clumps; Diffuse clumps and small polyps; F: Diffuse growth; H: Thin; I: Growth inhibition; Microcolony formation; Rippled; Small polyps; Thick; W: Halo formation on top, microlonies on bottom; further: test concentration or dose not given here
[8] = test system: E. coli; assay: as above; type: cell-based, Escherichia coli; set-up: key: A: Peptide aggregates; B: Less hyphal formation; Clumps; Diffuse clumps and small polyps; F: Diffuse growth; H: Thin; I: Growth inhibition; Microcolony formation; Rippled; Small polyps; Thick; W: Halo formation on top, microlonies on bottom; further: test concentration or dose not given here
[9] = test system: E. faecalis; assay: as above; type: cell-based, Enterococcus faecalis; set-up: key: A: Peptide aggregates; B: Less hyphal formation; Clumps; Diffuse clumps and small polyps; F: Diffuse growth; H: Thin; I: Growth inhibition; Microcolony formation; Rippled; Small polyps; Thick; W: Halo formation on top, microlonies on bottom; further: test concentration or dose not given here

PF-001: peptide having multiple activities (chain 1 MNNWIIVAQLSVTVINEIIDIMKEKQKGGK; chain 2 MNNWIIVAQLSVTVINEIIDIMKEKQKGGK; Peptide with targeting and/or antimicrobial activity)
Organism, effect [1]: M. luteus (C) | Organism, effect [2]: C. jeikeium (D) | Organism, effect [3]: MRSA (R) | Organism, effect [4]: S. epidermidis (C) | Activities [5]: G B

PF-004: peptide having multiple activities (chain 1 ARLSKAIIIAVIVVYHLDVRGLF; chain 2 ARLSKAIIIAVIVVYHLDVRGLF; Peptide with targeting and/or antimicrobial activity)
Organism, effect [1]: M. luteus (A) | Organism, effect [2]: C. jeikeium (A) | Organism, effect [3]: MRSA (R) | Organism, effect [4]: S. epidermidis (A) | Activities [5]: G B

PF-012: peptide having multiple activities (chain 1 WRGPNTEAGGKSANNIVQVGGAPT; chain 2 WRGPNTEAGGKSANNIVQVGGAPT; Peptide with targeting and/or antimicrobial activity)
Organism, effect [1]: M. luteus (C) | Organism, effect [2]: C. jeikeium (A) | Organism, effect [3]: MRSA (R) | Organism, effect [4]: S. epidermidis (S) | Activities [5]: G B

PF-022: peptide having multiple activities (chain 1 MINELKNKNSGIMNNYVVTKESKL; chain 2 MINELKNKNSGIMNNYVVTKESKL; Peptide with targeting and/or antimicrobial activity)
Organism, effect [1]: M. luteus (A) | Organism, effect [2]: C. jeikeium (A) | Organism, effect [3]: MRSA (R) | Organism, effect [4]: S. epidermidis (D) | Activities [5]: G B

PF-030: peptide having multiple activities (chain 1 MTCHQAPTTTHQSNMA; chain 2 MTCHQAPTTTHQSNMA; Peptide with targeting and/or antimicrobial activity)
Organism, effect [1]: M. luteus (C) | Organism, effect [2]: C. jeikeium (C) | Organism, effect [3]: MRSA (R) | Organism, effect [4]: S. epidermidis (D) | Activities [5]: G B

PF-139: peptide having multiple activities (ALSKPAIQARTLCRRQDPP; Peptide with targeting and/or antimicrobial activity)
Organism, effect [1]: M. luteus (C) | Organism, effect [2]: C. jeikeium (R) | Organism, effect [4]: S. epidermidis (M) | Activities [5]: G B

PF-176: peptide having multiple activities (RLTSNQFLTRITPFVFAQH; Peptide with targeting and/or antimicrobial activity)
Organism, effect [1]: M. luteus (C) | Target(s) ([6]; binding in aqueous buffers depending on peptide solubility): S. epidermidis and M. luteus and P. mirabilis and E. coli and C. albicans and MRSA and E. faecalis and C. jeikeium | Organism, effect [2]: C. jeikeium (D) | Organism, effect [4]: S. epidermidis (C) | Activities [5]: G B

PF-199 (FPAFSFGAIAGSVSVAR; Peptide with targeting and/or antimicrobial activity)
Organism, effect [1]: M. luteus (A) | Organism, effect [2]: C. jeikeium (R) | Organism, effect [4]: S. epidermidis (C)

PF-546: peptide having multiple activities (chain 1 PIIAPTIKTQIQ; chain 2 PIIAPTIKTQIQ; Peptide with targeting and/or antimicrobial activity)
Organism, effect [7]: S. pneumoniae (D) | Target(s) ([6]; peptide binding conducted in aqueous buffers varied by peptide solubility): S. epidermidis; also recorded: E. coli; also recorded: C. albicans; also recorded: S. pneumoniae; also recorded: E. faecalis; also recorded: C. jeikeium | Organism, effect [2]: C. jeikeium (D) | Organism, effect [3]: MRSA (D) | Organism, effect [4]: S. epidermidis (D) | Organism, effect [8]: E. coli (R) | Organism, effect [9]: E. faecalis (D) | Activities [5]: G B

PF-622: peptide having multiple activities (TREDVFSVRLINNIVNKQA; Peptide with targeting and/or antimicrobial activity)
Organism, effect [7]: S. pneumoniae (M) | Target(s) (microorganisms bound by the targeting peptide) [6]: S. epidermidis; also recorded: P. aeruginosa; also recorded: C. albicans; also recorded: S. pneumoniae; also recorded: E. faecalis; also recorded: C. jeikeium | Organism, effect [2]: C. jeikeium (D) | Organism, effect [3]: MRSA (D) | Organism, effect [4]: S. epidermidis (D) | Organism, effect [9]: E. faecalis (D) | Activities [5]: G B

PF-623: peptide having multiple activities (VLFAVYLGALDWLFSWLTQKM; Peptide with targeting and/or antimicrobial activity)
Organism, effect [7]: S. pneumoniae (D) | Target(s) (microorganisms bound by the targeting peptide) [6]: S. epidermidis and P. aeruginosa and MRSA and S. pneumoniae and E. faecalis and C. jeikeium | Organism, effect [2]: C. jeikeium (R) | Organism, effect [3]: MRSA (D) | Organism, effect [4]: S. epidermidis (M) | Organism, effect [9]: E. faecalis (D) | Activities [5]: G B

PF-629: peptide having multiple activities (chain 1 GLAAIATVFALY; chain 2 GLAAIATVFALY; Peptide with targeting and/or antimicrobial activity)
Organism, effect [7]: S. pneumoniae (M) | Target(s) (microorganisms bound by the targeting peptide) [6]: S. epidermidis and P. aeruginosa and C. albicans and MRSA and S. pneumoniae and E. faecalis and C. jeikeium | Organism, effect [2]: C. jeikeium (R) | Organism, effect [3]: MRSA (D) | Organism, effect [4]: S. epidermidis (C) | Organism, effect [9]: E. faecalis (R) | Activities [5]: G B

PF-637: peptide having multiple activities (chain 1 SRIKQDARSVRKYDRIGIFFYSFKSA; chain 2 SRIKQDARSVRKYDRIGIFFYSFKSA; Peptide with targeting and/or antimicrobial activity)
Organism, effect [7]: S. pneumoniae (M) | Target(s) (microorganisms bound by the targeting peptide) [6]: S. epidermidis and P. aeruginosa and C. albicans and MRSA and S. pneumoniae and E. faecalis and C. jeikeium | Organism, effect [2]: C. jeikeium (D) | Organism, effect [3]: MRSA (M) | Organism, effect [4]: S. epidermidis (M) | Organism, effect [9]: E. faecalis (D) | Activities [5]: G B

PF-657 (chain 1 YVANYTITQFGRDFDDRLAVAIHFA; chain 2 YVANYTITQFGRDFDDRLAVAIHFA; Peptide with targeting and/or antimicrobial activity)
Organism, effect (morphology, biofilm and growth disruption) [7]: S. pneumoniae (H) | Target(s) (microorganisms bound by the targeting peptide) [6]: Mycobacteria spp | Organism, effect (morphology, biofilm and growth disruption) [2]: C. jeikeium (D) | Organism, effect (morphology, biofilm and growth disruption) [3]: MRSA (D) | Organism, effect (morphology, biofilm and growth disruption) [4]: S. epidermidis (C) | Organism, effect (morphology, biofilm and growth disruption) [9]: E. faecalis (D)

PF-681: peptide having multiple activities (chain 1 TALTTVGVSGARLITYCVGVEDI; chain 2 TALTTVGVSGARLITYCVGVEDI; Peptide with targeting and/or antimicrobial activity)
Organism, effect (morphology, biofilm and growth disruption) [7]: S. pneumoniae (M) | Target(s) (microorganisms bound by the targeting peptide) [6]: M. smegmatis | Organism, effect (morphology, biofilm and growth disruption) [2]: C. jeikeium (R) | Organism, effect (morphology, biofilm and growth disruption) [3]: MRSA (M) | Organism, effect (morphology, biofilm and growth disruption) [4]: S. epidermidis (M) | Organism, effect (morphology, biofilm and growth disruption) [9]: E. faecalis (R) | Activities [5]: G B

PF-685 (chain 1 PTLWLACL; chain 2 PTLWLACL; Peptide with targeting and/or antimicrobial activity)
Organism, effect (morphology, biofilm and growth disruption) [7]: S. pneumoniae (M) | Target(s) (microorganisms bound by the targeting peptide) [6]: Mycobacteria spp | Organism, effect (morphology, biofilm and growth disruption) [2]: C. jeikeium (R) | Organism, effect (morphology, biofilm and growth disruption) [3]: MRSA (M) | Organism, effect (morphology, biofilm and growth disruption) [4]: S. epidermidis (M) | Organism, effect (morphology, biofilm and growth disruption) [9]: E. faecalis (R)
